In patent US20230338491A1, “METHOD FOR SCREENING INDIVIDUAL TUMOR NEOANTIGEN PEPTIDE, AND VACCINE FORMULATION THEREOF” (HANGZHOU NEOANTIGEN THERAPEUTICS CO., LTD., priority 2021, published 2023):
Like-named read-outs stand apart in the source and are kept apart here. Ends that are not written are not given here.

Assay: solubility comparison test in water and mannitol solutions
Format: physicochemical
Source text: Mannitol is a common adjuvant (skeleton forming agent) of freeze-dried preparation, which is used as a carrier to form a hard uniform skeleton so as to improve appearance of the freeze-dried preparation in glass bottles. […] Hydroxyl groups in mannitol molecule can form hydrogen bonds with carbonyl groups in peptide bonds, which cannot directly promote dissolution of polypeptides, but can promote formation of micelle. Therefore, solubilization of mannitol is mainly solubility enhancement after micelle formation. Results of solubility comparison test of the same polypeptide in water and mannitol solutions with different concentrations shown in table 7 as follows: […]

[1] = 1% of mannitol solution, read-out: Solubility in 1% of mannitol solution
[2] = 2% of mannitol solution, read-out: Solubility in 2% of mannitol solution
[3] = water, read-out: Solubility in water
[4] = Solubility in 1% of mannitol solution
[5] = Solubility in 2% of mannitol solution

Compound | solubility [1] [µg/mL] | solubility [2] [µg/mL] | solubility [3] [µg/mL] | solubility [4] [µg/mL] | solubility [5] [µg/mL] | solubility (Solubility in water) [µg/mL]
YKQLTIQVLLDRLVLQRLYPLAIQIKK [YMZH10] | ≥ 1000 | ≥ 1000 | 300 |  |  | 
KFKYVGTMEASEDATFNKITRSLQDLQQK [HMZH66] | ≥ 10000 | ≥ 10000 | ≤ 1500 |  |  | 
KKKKFVALVLSTLHMLTYGWTRAFEESRYK [ZZJI44] | ≥ 1000 | ≥ 1000 | < 100 |  |  | 
GQAFKYSSNLLRHMRTHTGEKPF [HMZH60] |  |  |  | ≥ 10000 | ≥ 10000 | < 2000
CC[C@H](C)[C@H](NC(=O)[C@H](CC(C)C)NC(=O)[C@H](CCC(N)=O)NC(=O)[C@@H](NC(=O)[C@@H](NC(=O)[C@H](CC(C)C)NC(=O)[C@H](C)NC(=O)[C@H](CO)NC(=O)[C@H](CCCCN)NC(=O)CNC(=O)[C@@H](NC(=O)CNC(=O)[C@H](CC(=O)O)NC(=O)[C@H](C)NC(=O)CNC(=O)[C@@H](NC(=O)[C@@H](NC(=O)[C@@H](N)CCCCN)C(C)C)C(C)C)C(C)C)[C@@H](C)O)[C@@H](C)CC)C(=O)N[C@@H](CCC(N)=O)C(=O)N[C@@H](CC(N)=O)C(=O)N[C@@H](Cc1c[nH]cn1)C(=O)O [GWMI01] |  |  |  | ≥ 1000 | ≥ 1000 | < 100
FITRPPHRFLSLLCLGLRIPQLSV [YMZH19] | > 1000 | > 1000 | < 100 |  |  | 
KKKGQQLSGVNAIYFYADQIYLSAGVPEEH [GWMI10] | ≥ 1000 | ≥ 1000 | < 100 |  |  | 
FHDQPHLKRKAVCSFQIYAVPWQGT [HMZH51] | ≥ 10000 | ≥ 10000 | < 2000 |  |  | 
KGFTQGDVGLAMGKLYRNDFSQTTISRFEA [TZQI66] | ≥ 1000 | ≥ 1000 | < 100 |  |  | 
SRKLEDYGEQKSMSISTAKRLAEFLGDQK [HMZH59] | ≥ 1000 | ≥ 1000 | 300 |  |  | 
KLVFVRKSLNRIEFRECREEILKFLKK [GWMI13] | ≥ 1000 | ≥ 1000 | < 100 |  |  | 
TSLKGEIAFDPRRAYYLWF [LXJI54, TSLKGEIAFDPRRAYYLWF] | ≥ 1000 | ≥ 1000 | < 100 |  |  | 
KLTLASWGPKMVLLRLEHQFAVGK [YMZH14] | ≥ 1000 | ≥ 1000 | 300 |  |  | 
SVFGDRITGETIRSQNVMAAASK [WKYE17] | ≥ 1000 | ≥ 1000 | < 100 |  |  | 
SSPAEFFELMKGQIRIAKRRVVMASLYLGT [TZQI51] | ≥ 1000 | ≥ 1000 | < 100 |  |  | 
DIQDLKTCIASTTQNIEQKKK [WJIA11] | ≥ 1000 | ≥ 1000 | < 100 |  |  | 
KEQMMREKEKLMLRLQDYEEKTKK [ZZJI58] | ≥ 1000 | ≥ 1000 | < 100 |  |  | 
FAEKLTLILQEKYKNYWYPEKPSKGQAY [YMZH17] | ≥ 1000 | ≥ 1000 | 300 |  |  | 
PGWSLTLGLRCSSRLGLPK [LYLI37, PGWSLTLGLRCSSRLGLPK] | ≥ 1000 | ≥ 1000 | < 100 |  |  | 
